Results from PMC4551797 (PLoS ONE, 2015).
Where two headings read alike, the source gives them in different places.

Assays:
HEK-293 cells = test: cAMP production in untransfected HEK-293 cells (specificity control); assay type: cell-based; conditions: Homo sapiens, HEK293, read-out: cAMP production: no elevation up to
Method: (§1) HEK-293 cells were obtained from ATCC and a clonal HEK-293 line overexpressing mouse TGR5 was prepared. Both were maintained in Dulbecco’s modified Eagle’s medium (DMEM) containing 10% fetal bovine serum (FBS) and penicillin /streptomycin. Mouse STC-1 cells were obtained from ATCC under agreement with the Cold Spring Harbor Laboratories and maintained in DMEM containing 10% FBS and penicillin /streptomycin. NCI-H716 cells were obtained from ATCC and were maintained in RPMI-1640 with 10% FBS. NCI-H716 cells were cultured in 96 well plate coated with Matrigel (BD). After 72 hours, cAMP production stimulated with TGR5 agonists was measured using HTRF cAMP assay kit (CISBIO). The level of cAMP in suspensions of STC-1 cells stimulated with increasing concentrations of TGR5 agonists was also determined. […] The production of GLP-1 was determined using a GLP-1 Assay (7–36) amide kit (Mesoscale Discovery) following the manufacturer’s instructions. […]
(§2) Compound 18 is a novel small molecule agonist of TGR5 developed by Eli Lilly and Company (MW = 508.62, Fig 2A). […] In order to determine potency of compound 18 for the mouse and human TGR5 receptor in cells with endogenous levels of receptor, we measured compound 18-stimulated cAMP production and GLP-1 secretion in both mouse (STC-1) and human (NCI-H716) enteroendocrine cell lines, that we have shown to express TGR5 natively (Fig 1). […]

STC-1 cells = test: GLP-1 secretion in STC-1 enteroendocrine cells; assay type: cell-based; conditions: Mus musculus
Method: as §1, §2

NCI-H716 cells = test: GLP-1 secretion in NCI-H716 enteroendocrine cells; assay type: cell-based; conditions: Homo sapiens
Method: as §1, §2

GPR120 = target: T1, GPR120 (Homo sapiens, UniProt Q5NUL3); test: Selectivity: enteroendocrine GPCR GPR120
T1 sequence (Q5NUL3 1-361): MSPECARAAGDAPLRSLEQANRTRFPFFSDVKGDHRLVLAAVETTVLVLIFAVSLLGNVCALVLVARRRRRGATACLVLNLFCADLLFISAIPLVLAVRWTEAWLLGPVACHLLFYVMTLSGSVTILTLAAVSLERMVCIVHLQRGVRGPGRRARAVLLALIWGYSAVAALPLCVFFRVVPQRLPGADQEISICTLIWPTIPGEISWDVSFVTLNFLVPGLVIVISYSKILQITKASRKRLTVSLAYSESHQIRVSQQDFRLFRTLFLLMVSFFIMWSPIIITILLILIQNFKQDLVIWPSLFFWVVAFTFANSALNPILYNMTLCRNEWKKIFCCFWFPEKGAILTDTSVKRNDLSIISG

[1] = CEREP mini panel (56 assays: enzymes, receptors, ion channels); conditions: read-out: IC50s for 56 assays in a CEREP mini panel
C57BL/6 mice [2] = test: Three-day study on GLP-1 and gallbladder filling (bile weight); assay type: in vivo, mouse
Method: C57BL/6 mice, Tgr5 KO mice, or their wild-type littermate controls were orally dosed with vehicle or compounds twice per day for 3 days, with overnight fasting performed on the evening of day 2. On the morning of day 3, animals were dosed orally with compounds and then euthanized by CO2 asphyxiation at 30 minutes after the fifth dose. Plasma was collected for analysis of GLP-1 (X-36) amide as mentioned above, followed immediately by incision into the abdominal cavity to remove and weigh bile from the gallbladder.
On the third day, compound was dosed in the morning followed 30 minutes later by measurement of bile filling (A) by use of a needle and syringe and GLP-1 (x-36) amide (B) by cardiac puncture.

C57BL/6 mice [3] = test: Oral glucose tolerance test, glucose only; conditions: oral 1-100 mg/kg tested, glucose 3 g/kg 15 min after compound
Method: For measurement of glucose only, overnight-fasted C57BL/6 mice in a normal light cycle were orally dosed with vehicle or compound, followed by an oral bolus of 3 g/kg glucose at 15 minutes post compound. At 0, 20, 40, 60, and 120 minutes post glucose dose, blood glucose was assessed via glucometers. Resulting raw data was used to generate AUCs. […] At 0, 15, 30, 60, and 120 minutes post glucose dose, blood glucose was assessed via glucometers. Resulting raw data was used to generate AUCs.

[4] = Plasma compound levels after oral dosing (LC-MS/MS); conditions: C57BL/6, mouse
Tgr5 KO mice = test: Three-day study on GLP-1, PYY and bile weight in Tgr5 KO mice; conditions: 100 mg/kg oral BID 3 days, 30 min after last dose
C57BL/6 mice [5] = test: Acute in vivo incretin secretion assay (plasma GLP-1 and PYY AUC); conditions: fasted mice, 3-hour time course
Text: Plasma was separated by centrifugation, aliquoted, and analyzed for GLP-1 (X-36) amide (Mesoscale Discovery) and total PYY (Millipore). Resulting raw data was used to generate area under the curve analyses (AUCs).

wild-type mice = test: Three-day study on GLP-1, PYY and bile weight in wild-type littermates; conditions: 100 mg/kg oral BID 3 days, 30 min after last dose
[6] = 1, 3, 10, 30, 100 mg/kg oral BID 3 days, 30 min after last dose

## CC(=O)N1CCC(C(C)N(C(=O)COc2cccc3sc4nc(C)cn4c23)c2ccc(F)cc2)CC1 (stereo not shown) [compound 18]
HEK-293 cells
  EC50: > 30000 nM
STC-1 cells; read-out: EC50, GLP-1 secretion
  EC50: 307 nM
STC-1 cells; unit inferred, x-axis in nM, read-out: EC50 STC-1 (Fig 2D inset, GLP-1 secretion)
  EC50: 307 nM
NCI-H716 cells
  EC50: 2660 nM
GPR120
  EC50: > 125000 nM
[1]
  IC50: > 10000 nM
C57BL/6 mice [2]; [6]
  bile weight (gallbladder filling): clear dose dependent increase in bile weight
  plasma GLP-1 levels: elevated GLP-1 levels
C57BL/6 mice [2]; oral BID 3 days
  doses with significant effects on GLP-1 secretion: ≥ 30 mg/kg
  doses with significant effects on bile weight: ≥ 3 mg/kg
C57BL/6 mice [3]
  doses that reduce glucose excursions in OGTT: ≥ 30 mg/kg
[4]; 3 mg/kg
  AUC(0-t): 0.049 µM·h
  Cmax: 59 nM
[4]; 10 mg/kg
  AUC(0-t): 0.507 µM·h
  Cmax: 348 nM
[4]; 30 mg/kg
  AUC(0-t): 1.52 µM·h
  Cmax: 2510 nM
[4]; 100 mg/kg
  AUC(0-t): 14.3 µM·h
  Cmax: 14800 nM
  Tmax: 15 min
Tgr5 KO mice
  GLP-1: no detectable increase
  PYY: no detectable increase
  bile weight: no detectable increase
C57BL/6 mice [5]; 3 mg/kg oral
  GLP-1 AUC increase over vehicle: 1.2 fold over vehicle
  PYY AUC increase over vehicle: 1.1 fold over vehicle
C57BL/6 mice [5]; 10 mg/kg oral
  GLP-1 AUC increase over vehicle: 2.0 fold over vehicle
  PYY AUC increase over vehicle: 1.5 fold over vehicle
C57BL/6 mice [5]; 30 mg/kg oral
  GLP-1 AUC increase over vehicle: 5.7 fold over vehicle
  PYY AUC increase over vehicle: 3.1 fold over vehicle
C57BL/6 mice [5]; 100 mg/kg oral
  GLP-1 AUC increase over vehicle: 12.1 fold over vehicle
  PYY AUC increase over vehicle: 4.9 fold over vehicle
wild-type mice
  GLP-1: significant increase
  PYY: significant increase
  bile weight: significant increase
